By EC50 is commonly meant the concentration needed to bring the measured effect to its halfway point. What is called IC50 is the concentration that gives 50% inhibition.

Molecules are shown by their SMILES. Where two headings read alike, the source gives them in different places.

The test system of assay [1] is human venous whole blood (IFN-γ). In words: Human whole blood IFN-γ assay. It is filed as cell-based. The conditions noted are these: whole blood, normalized to 3 μM reference compound as 100% activation, read-out: IFN-γ Whole Blood Normalized EC50. As for the experimental part: Human venous whole blood (22.5 μL per well), obtained from healthy donors, was pre-treated with compounds for one hour at 37° C. in a humidified 95% air/5% CO2 incubator. The blood was stimulated with 2.5 μL anti-human CD3 and anti-CD28 mAb at a final concentration of 1 μg/mL each for 24 hours at 37° C. IFN-γ in the supernatants was measured using AlphLISA kit (Cat #AL217).

Another assay has as its target human DGKζ (Homo sapiens (Human), UniProt Q13574). As to the kind of experiment: DGKζ LIPGLO assay (extruded liposome substrate, ADP-Glo luminescence). The assay is classed as biochemical. Particulars: liposome assay; read-out: DGK zeta LIPGLO IC50.
The target in another assay is human DGKα (Homo sapiens (Human), UniProt P23743). As to the kind of experiment: DGKα LIPGLO assay (extruded liposome substrate, ADP-Glo luminescence). The conditions noted are these: liposome assay; read-out: DGK alpha LIPGLO IC50. It is filed as biochemical.
Chain of human DGKα (P23743 whole entry, looked up): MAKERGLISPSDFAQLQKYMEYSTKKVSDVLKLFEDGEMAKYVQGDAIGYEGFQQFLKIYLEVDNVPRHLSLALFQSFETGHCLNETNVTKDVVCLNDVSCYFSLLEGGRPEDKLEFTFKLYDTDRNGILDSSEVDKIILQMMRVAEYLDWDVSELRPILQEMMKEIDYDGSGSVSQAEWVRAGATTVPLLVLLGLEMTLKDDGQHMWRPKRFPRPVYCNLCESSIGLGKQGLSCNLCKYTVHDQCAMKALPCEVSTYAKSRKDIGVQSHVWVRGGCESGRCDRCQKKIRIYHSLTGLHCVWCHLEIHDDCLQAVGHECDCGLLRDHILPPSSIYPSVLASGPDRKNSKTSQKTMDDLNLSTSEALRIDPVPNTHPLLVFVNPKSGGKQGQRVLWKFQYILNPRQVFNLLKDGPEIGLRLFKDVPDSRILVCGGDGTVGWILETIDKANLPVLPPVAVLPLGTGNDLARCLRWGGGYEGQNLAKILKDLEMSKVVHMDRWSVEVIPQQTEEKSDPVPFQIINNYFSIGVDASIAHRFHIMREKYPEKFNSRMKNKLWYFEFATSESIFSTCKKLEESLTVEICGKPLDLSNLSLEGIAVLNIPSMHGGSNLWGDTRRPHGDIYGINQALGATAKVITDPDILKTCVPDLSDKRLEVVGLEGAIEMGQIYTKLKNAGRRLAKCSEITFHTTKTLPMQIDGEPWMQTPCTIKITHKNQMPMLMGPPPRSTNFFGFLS

Chain of human DGKζ (Q13574 other isoform, or with tags, fused parts or gaps): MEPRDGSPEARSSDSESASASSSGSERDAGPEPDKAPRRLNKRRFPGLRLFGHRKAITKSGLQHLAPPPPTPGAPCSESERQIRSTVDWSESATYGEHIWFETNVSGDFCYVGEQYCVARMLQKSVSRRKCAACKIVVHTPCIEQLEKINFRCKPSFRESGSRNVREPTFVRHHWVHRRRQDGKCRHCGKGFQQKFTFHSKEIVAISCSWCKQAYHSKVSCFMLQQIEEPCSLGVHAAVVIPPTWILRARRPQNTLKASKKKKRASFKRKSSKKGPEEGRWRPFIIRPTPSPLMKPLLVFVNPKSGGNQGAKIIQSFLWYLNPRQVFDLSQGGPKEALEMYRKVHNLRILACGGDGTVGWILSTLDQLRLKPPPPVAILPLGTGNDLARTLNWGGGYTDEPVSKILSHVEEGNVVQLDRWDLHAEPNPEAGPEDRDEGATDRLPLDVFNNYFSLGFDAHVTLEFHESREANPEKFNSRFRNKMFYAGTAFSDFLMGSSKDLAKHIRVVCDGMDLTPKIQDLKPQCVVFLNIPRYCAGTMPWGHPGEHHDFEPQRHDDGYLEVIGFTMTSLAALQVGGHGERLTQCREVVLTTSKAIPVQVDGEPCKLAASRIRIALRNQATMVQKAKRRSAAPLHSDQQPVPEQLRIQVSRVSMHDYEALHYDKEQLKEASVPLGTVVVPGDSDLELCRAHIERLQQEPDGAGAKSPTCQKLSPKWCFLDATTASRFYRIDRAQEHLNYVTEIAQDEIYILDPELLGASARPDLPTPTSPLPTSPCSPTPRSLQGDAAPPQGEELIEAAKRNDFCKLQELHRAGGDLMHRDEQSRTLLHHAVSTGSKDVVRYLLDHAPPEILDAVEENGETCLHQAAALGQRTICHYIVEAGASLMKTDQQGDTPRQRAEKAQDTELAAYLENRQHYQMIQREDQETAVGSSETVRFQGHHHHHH

`CC[C@@H]1CN(c2nc(=O)n(C)c3ccc(C#N)nc23)[C@@H](C)CN1C(C)c1ccc(OC(C)C)cc1` (single isomer, unassigned) [Example 53]: in assay [1], the EC50 was 200 nM. The IC50 turned out to be 79 nM at human DGKζ and 630 nM on human DGKα.
The like results for `CC[C@@H]1CN(c2nc(=O)n(C)c3ccc(C#N)nc23)[C@@H](C)CN1C(C)c1ccc(OC)cc1` (single isomer, unassigned) [Example 57] were, in that order, 1900 nM, 930 nM and 960 nM.
On the same counts, the results for `CC[C@@H]1CN(c2nc(=O)n(C)c3ccc(C#N)nc23)[C@@H](C)CN1C(C)c1ccc(C(F)(F)F)cc1F` (single isomer, unassigned) [Example 58] are 22 nM, 54 nM and 270 nM.
The like results for `CC[C@@H]1CN(c2nc(=O)n(C)c3ccc(C#N)nc23)[C@@H](C)CN1C(C)c1ccc(C(F)(F)F)cc1F` (single isomer, unassigned) [Example 59] were, in that order, 500 nM, 260 nM and 300 nM.
Turning to `CC[C@@H]1CN(c2nc(=O)n(C)c3ccc(C#N)nc23)[C@@H](C)CN1C(C)c1ccc(C#N)cc1` (single isomer, unassigned) [Example 60], the EC50 in assay [1] is 23 nM. Further, the values for the IC50 on human DGKζ and on human DGKα were 28 nM and 30 nM, respectively.
The like results for `CC[C@@H]1CN(c2nc(=O)n(C)c3ccc(C#N)nc23)[C@@H](C)CN1C(C)c1ccc(C#N)cc1` (single isomer, unassigned) [Example 61] were, in that order, 4500 nM, 380 nM and 52 nM.
The like results for `CC[C@@H]1CN(c2nc(=O)n(C)c3ccc(C#N)nc23)[C@@H](C)CN1C(C)c1ccc(C2CC2)cc1` (single isomer, unassigned) [Example 63] were, in that order, 70 nM, 21 nM and 40 nM.
In the case of `CC[C@@H]1CN(c2nc(=O)n(C)c3ccc(C#N)nc23)[C@@H](C)CN1C(C)c1ccc(C2CC2)cc1` (single isomer, unassigned) [Example 64], the concentration for a half-maximal effect (EC50) in assay [1] was found to be 690 nM. Besides, the IC50 at human DGKζ worked out at 760 nM; at human DGKα, 340 nM.
Consider `CC[C@@H]1CN(c2nc(=O)n(C)c3ccc(C#N)nc23)[C@@H](C)CN1C(c1ccc(F)cc1)c1cccc(C(F)(F)F)n1` (single isomer, unassigned) [Example 65], for which the concentration for a half-maximal effect (EC50) in assay [1] came out at 360 nM. The IC50 at human DGKζ amounted to 100 nM; on human DGKα, 1190 nM.
Consider `CC[C@@H]1CN(c2nc(=O)n(C)c3ccc(C#N)nc23)[C@@H](C)CN1C(C)c1ccc(OCC2CC2)cc1` (single isomer, unassigned) [Example 68], for which the EC50 in assay [1] (Homo sapiens) stood at 1900 nM. For the same molecule, the IC50 at human DGKζ was found to be 480 nM; at human DGKα, 1630 nM.
Consider `CC[C@@H]1CN(c2nc(=O)n(C)c3ccc(C#N)nc23)[C@@H](C)CN1C(C)c1ccc(OCC2CC2)cc1F` (single isomer, unassigned) [Example 69], for which, in assay [1], the EC50 came out at 33 nM. For the same molecule, the IC50 at human DGKζ worked out at 14 nM; on human DGKα, 210 nM.
The like results for `CC[C@@H]1CN(c2nc(=O)n(C)c3ccc(C#N)nc23)[C@@H](C)CN1C(C)c1ccc(OCC2CC2)cc1F` (single isomer, unassigned) [Example 70] were, in that order, 1440 nM, 1410 nM and 840 nM.
`CC[C@@H]1CN(c2nc(=O)n(C)c3ccc(C#N)nc23)[C@@H](C)CN1C(C)c1ccc2c(c1)OC(F)(F)O2` (single isomer, unassigned) [Example 71]: the EC50 in assay [1] was determined as 66 nM. Moreover, the values for the IC50 at human DGKζ and at human DGKα were 22 nM and 670 nM, respectively.
For `CC[C@@H]1CN(c2nc(=O)n(C)c3ccc(C#N)nc23)[C@@H](C)CN1C(c1ccc(F)cc1)c1ccon1` (single isomer, unassigned) [Example 74], the EC50 in assay [1] amounted to 430 nM. Besides, the IC50 at human DGKζ was determined as 960 nM; on human DGKα, 250 nM.
For the molecule `CC[C@@H]1CN(c2nc(=O)n(C)c3ccc(C#N)nc23)[C@@H](C)CN1C(c1ccc(F)cc1)c1ccc(C2CC2)cn1` (single isomer, unassigned) [Example 76], in assay [1], the EC50 came to 180 nM. Further, the IC50 on human DGKζ is 23 nM; at human DGKα, 79 nM.
In the case of `CCC(c1ccc(OC(F)F)cc1)N1C[C@H](C)N(c2nc(=O)n(C)c3ccc(C#N)nc23)C[C@H]1CC` (single isomer, unassigned) [Example 78], the EC50 in assay [1] (Homo sapiens) turned out to be 75 nM. In addition, the results for the 50% inhibitory concentration (IC50) on human DGKζ and at human DGKα were 1130 nM and 470 nM, respectively.
On the same counts, the results for `CCC(c1ccc2c(c1)OC(F)(F)O2)N1C[C@H](C)N(c2nc(=O)n(C)c3ccc(C#N)nc23)C[C@H]1CC` (single isomer, unassigned) [Example 79] are 300 nM, 23 nM and 300 nM.
For `CC[C@@H]1CN(c2nc(=O)n(C)c3ccc(C#N)nc23)[C@@H](C)CN1C(C)c1ccc(OC(F)(F)F)cc1F` (single isomer, unassigned) [Example 82], the EC50 in assay [1] was found to be 530 nM. The results for the IC50 on human DGKζ and on human DGKα were 2450 nM and 1540 nM, respectively.
On the same counts, the results for `CC[C@@H]1CN(c2nc(=O)n(C)c3ccc(C#N)nc23)[C@@H](C)CN1C(c1ccc(F)cc1)c1ccccn1` (single isomer, unassigned) [Example 87] are 440 nM, 310 nM and 28 nM.
The like results for `CC[C@@H]1CN(c2nc(=O)n(C)c3ccc(C#N)nc23)[C@@H](C)CN1C(c1ccc(F)cc1)c1ccccn1` (single isomer, unassigned) [Example 88] were, in that order, 48 nM, 76 nM and 110 nM.
Regarding `CC[C@@H]1CN(c2nc(=O)n(C)c3ccc(C#N)nc23)[C@@H](C)CN1C(C)c1ccc(C2CC2)cc1F` (single isomer, unassigned) [Example 91], in assay [1] (Homo sapiens), the concentration for a half-maximal effect (EC50) was 190 nM. Besides, the values for the IC50 on human DGKζ and on human DGKα were 44 nM and 330 nM, respectively.
On to `CC[C@@H]1CN(c2nc(=O)n(C)c3ccc(C#N)nc23)[C@@H](C)CN1C(C)c1ccc(C2CC2)cc1F` (single isomer, unassigned) [Example 92], for which the EC50 in assay [1] turned out to be 350 nM. Besides, the results for the IC50 at human DGKζ and on human DGKα were 120 nM and 460 nM, respectively.
The like results for `CC[C@@H]1CN(c2nc(=O)n(C)c3ccc(C#N)nc23)[C@@H](C)CN1C(c1ccc(F)cc1)c1cnc(C2CC2)s1` (single isomer, unassigned) [Example 103] were, in that order, 94 nM, 36 nM and 170 nM.
With `CC[C@@H]1CN(c2nc(=O)n(C)c3ccc(C#N)nc23)[C@@H](C)CN1C(c1ccc(F)cc1)c1cnc(C2CC2)s1` (single isomer, unassigned) [Example 104], in assay [1], the EC50 worked out at 210 nM. Moreover, the IC50 was 110 nM on human DGKζ and 470 nM on human DGKα.
With `C[C@@H]1CN(c2nc(=O)n(C)c3ccc(C#N)nc23)[C@@H](C)CN1C(c1ccc(F)cc1)c1nc(C2CC2)no1` (single isomer, unassigned) [Example 106], in assay [1], the EC50 came to 240 nM. Also, the IC50 on human DGKζ was 130 nM; at human DGKα, 39 nM.
`CC(c1ccc(F)cc1)N1C[C@H](C)N(c2nc(=O)n(C)c3ccc(C#N)nc23)C[C@H]1C` (single isomer, unassigned) [Example 129]: in assay [1] (Homo sapiens), the EC50 was found to be 13200 nM. Further, the values for the IC50 on human DGKζ and on human DGKα were 1550 nM and 820 nM, respectively.
As to `CC(c1ccc(OC(F)(F)F)cc1)N1C[C@H](C)N(c2nc(=O)n(C)c3ccc(C#N)nc23)C[C@H]1C` (single isomer, unassigned) [Example 132], the EC50 in assay [1] is 2650 nM. In addition, the IC50 came out at 5950 nM on human DGKζ and 700 nM on human DGKα.
As to `CC(c1cc(F)c(F)c(F)c1)N1C[C@H](C)N(c2nc(=O)n(C)c3ccc(C#N)nc23)C[C@H]1C` (single isomer, unassigned) [Example 139], the EC50 in assay [1] (Homo sapiens) stood at 20000 nM. Further, the figures for the IC50 at human DGKζ and at human DGKα were 2880 nM and 25600 nM, respectively.
`CC(c1ccc(C(F)(F)F)cc1)N1C[C@H](C)N(c2nc(=O)n(C)c3ccc(C#N)nc23)C[C@H]1C` (single isomer, unassigned) [Example 140]: the EC50 in assay [1] worked out at 430 nM. For the same molecule, the IC50 on human DGKζ is 360 nM; on human DGKα, 180 nM.
On the same counts, the results for `CC(c1ccc(C(F)(F)F)cc1)N1C[C@H](C)N(c2nc(=O)n(C)c3ccc(C#N)nc23)C[C@H]1C` (single isomer, unassigned) [Example 141] are 3550 nM, 1760 nM and 1270 nM.
As to `CC(c1ccc(F)c(F)c1)N1C[C@H](C)N(c2nc(=O)n(C)c3ccc(C#N)nc23)C[C@H]1C` (single isomer, unassigned) [Example 148], in assay [1], the EC50 was determined as 570 nM. Besides, the IC50 at human DGKζ came to 100 nM; at human DGKα, 260 nM.
The like results for `CCC(c1ccc(OC(F)(F)F)cc1F)N1C[C@H](C)N(c2nc(=O)n(C)c3ccc(C#N)nc23)C[C@H]1C` (single isomer, unassigned) [Example 153] were, in that order, 2310 nM, 1980 nM and 690 nM.
Turning to `CCC(c1ccc(OC(F)(F)F)cc1)N1C[C@H](C)N(c2nc(=O)n(C)c3ccc(C#N)nc23)C[C@H]1C` (single isomer, unassigned) [Example 154], the concentration for a half-maximal effect (EC50) in assay [1] (Homo sapiens) came to 1430 nM. Moreover, the figures for the IC50 on human DGKζ and at human DGKα were 370 nM and 16 nM, respectively.

These data come from patent US11584747B2, “Substituted pyridopyrimidinonyl compounds useful as T cell activators” (BRISTOL-MYERS SQUIBB COMPANY, priority 2019, dated 2023).
